In US8673843B2, “NMDA receptors modulators and uses thereof” (Northwestern University, priority 2010, dated 2014):
Residues, ends and D or L forms follow the SMILES beside them.

Target: NMDA receptor (Rattus norvegicus, UniProt P35439)
Assay: [3H] MK-801 binding assay
Conditions: 50 μM glutamate; for Potency: rat forebrain crude synaptic membranes, [3H]MK-801 5 nM
Procedure: Male 2-3 month old rats were decapitated without anesthesia by guillotine, and the brains were rapidly removed (˜90 sec) and whole cortex and hippocampus dissected on an ice cold platform, frozen on dry ice, and stored at −80° C. Samples were homogenized in 20 volumes of ice cold 5 mM Tris-HCl pH 7.4 by Brinkman Polytron and pelleted 48,000×g for 20 min at 4° C., and washed an additional 3 times as described above. Membranes were then resuspended in 5 mM EDTA and 15 mM Tris-HCl pH 7.4 and incubated for 1 hr at 37° C., membranes pelleted at 48,000×g for 20 min at 4° C., snap frozen in liquid nitrogen, and stored at −80° C. On the day of the experiment, membranes were thawed at room temperature and washed an additional 7 times in ice cold 5 mM Tris-HCl (pH 7.4) as described above. After the last wash, membranes were resuspended in assay buffer (5 mM Tris-acetate pH 7.4), and protein content was determined by the BCA assay.
[^3H] […] Then the tubes were washed three times with assay buffer (5 mM Tris-acetate PH 7.4), and the filters were analyzed by liquid scintillation to calculate the disintegrations per minute (DPM). Zero levels were determined in the absence of any glycine ligand and in the presence of 30 μM 5,7-Dichlorokynurenic acid (5,7-DCKA). Maximal stimulation was measured in the presence of 1 mM glycine. 50 μM glutamate was present in all samples.
For each data point (i.e., a single concentration of the test compound), the % maximal [^3H]
The efficacy for each compound, expressed as the % increase in [^3H]

Structure (SMILES) | Efficacy (% Increase in [3H] MK-801 Binding) (best-fit top value, relative to 1 mM glycine maximal stimulation) [%] | Potency [pM]
C[C@@H](O)[C@H](N)C(=O)N1CCC[C@H]1C(=O)N1CCC[C@H]1C(=O)N[C@@H](CO)C(N)=O [Compound B, (S)—N—((S)-1-amino-3-hydroxy-1-oxopropan-2-yl)-1-((S)-1-((2S,3R)-2-amino-3-hydroxybutanoyl)pyrrolidine-2-carbonyl)pyrrolidine-2-carboxamide] (H-TPPS-NH2) | 24 | 6
NC(=O)[C@H](CO)NC(=O)[C@@H]1CCCN1C(=O)[C@@H]1CCCN1C(=O)[C@@H](N)CO [Compound C, (S)—N—((S)-1-amino-3-hydroxy-1-oxopropan-2-yl)-1-((S)-1-((S)-2-amino-3-hydroxy-propanoyl)-pyrrolidine-2-carbonyl)-pyrrolidine-2-carboxamide] (H-SPPS-NH2) | – | 16
C[C@@H](O)[C@H](NC(=O)[C@@H]1CCCN1C(=O)[C@@H]1CCCN1C(=O)[C@@H](N)CO)C(N)=O [Compound A, (S)—N-((2S,3R)-1-amino-3-hydroxy-1-oxobutan-2-yl)-1-((S)-1-((S)-2-amino-3-hydroxypropanoyl)pyrrolidine-2-carbonyl)pyrrolidine-2-carboxamide] (H-SPPT-NH2) | – | 5
C[C@@H](O)[C@H](N)C(=O)N1CCC[C@H]1C(=O)N1CCCC1(Cc1ccccc1)C(=O)N[C@H](C(N)=O)[C@@H](C)O (stereo partly drawn) [E, N-((2S,3R)-1-amino-3-hydroxy-1-oxobutan-2-yl)-1-((S)-1-((2S,3R)-2-amino-3-hydroxybutanoyl)-pyrrolidine-2-carbonyl)-2-benzylpyrrolidine-2-carboxamide] | – | 0.2
